# Data: patent publication US7846651B2, “Epitope/peptide recognized by HLA-A2402-restricted Ep-CAM-specific CTL and use of the same” (Aichi Prefecture, priority 2004, dated 2010)
# Tests used:
# T2-A24 cells = assay: 51Cr release assay of C27 against peptide-pulsed T2-A24; format: cell-based; conditions: effector to target ratio of 1
# PC9 = assay: Cold target inhibition assay; format: cell-based; conditions: peptide 1×10^−5 M pulsed T2-A24 cells
# Method: Cold target inhibition assay was carried out according to the method of Arai et al. (Blood, 97:2903-2907, 2001). […] After several washings, the resultants were incubated with 2×10^4 effector cells for 1 hour to yield a ratio of peptide-pulsed T2-A24 cells to target cells of 40:1, 20:1, 10:1, and 5:1. 2×10^3 51Cr-labeled PC9 cell lines were added to each well. The cytotoxicity was determined as described in the item 7) regarding CTL assays.
# HLA-A2402 = HLA-A2402 (Homo sapiens, UniProt P04439, D101N/D140Y/D185E/E176V/E190D/F33S/G103R/G107R/I119L/I121M/I306V/K335N/L105A/L180Q/L300P/N151K/N90K/Q86E/Q94H/R106L/R138H/R89G/T104I/T345S/V100E/W191G/Y123F); assay: MHC stabilization assay using T2-A24 cells; format: binding; conditions: ranking among the seven peptides
# [1] = test system: CD8 positive T-cells of HLA-A2402 positive healthy donors; assay: ELISPOT assay of IFN-γ; format: cell-based, human; conditions: T-cell lines stimulated by peptide-pulsed dendritic cells, incubated with peptide-pulsed T2-A24 cells
# Method: Subsequently, self-derived dendritic cells were pulsed at room temperature for 2 to 4 hours with each of the Ep-CAM synthesis peptides with a concentration of 10 μM in an AIM-V culture medium (product of Gibco) containing 5×10^−5 M β-mercaptoethanol, followed by irradiation (33Gy).
# The dendritic cells (1×10^5 cells) were then cocultivated in a culture tube with CD8 positive T lymphocytes (1×10^6 lymphocytes) in a RPMI1640 culture medium containing 10% human blood serum, 25 ng/mL recombinant human IL-7 (product of R&D systems company), and 5 ng/mL recombinant human IL-12 (product of R&D systems company).
# After seven days of cultivation, the cells were stimulated by adding 1×10^5 peptide-pulsed self-derived dendritic cells prepared as above. After a further seven days of cultivation, the cells were stimulated 3 times by the same procedure. After each restimulation, human recombinant IL-2 (product of Takeda Pharmaceutical Company, Ltd.) was added to give a final concentration of 20 units/ml. Actively proliferating cells were divided into 2 or 3 tubes as necessary, and cultured in a fresh culture medium containing 20 units/ml of IL-2. […]
# The plate was incubated at 37° C. for 20 hours in a 5% CO2 incubator, and thoroughly washed with PBS containing 0.05% Tween 20. […] The number of diffused large spots was counted under the microscope.
compound,measurement,setting,value
CC[C@H](C)[C@H](NC(=O)[C@H](Cc1ccccc1)NC(=O)[C@H](CCCCN)NC(=O)[C@@H]1CCCN1C(=O)[C@H](CC(=O)O)NC(=O)[C@H](CC(C)C)NC(=O)[C@H](CCC(N)=O)NC(=O)[C@H](Cc1ccc(O)cc1)NC(=O)[C@@H](N)CCCNC(=N)N)C(=O)O [Ep173],peptide concentration at which C27 demonstrated cytotoxicity against pulsed T2-A24 cells,T2-A24 cells,100 pM
same,inhibition of C27-mediated cytotoxicity against PC9 by peptide-pulsed T2-A24 cold target cells,PC9,specifically inhibited
"EMGEMHREL (… PROTEIN EPITOPE PEPTIDE …) [Ep304, Ep-CAM peptide, amino acid positions 304-312]",affinity for the HLA-A2402,HLA-A2402,lowest affinity
"RYLRDQQLL (SYTHETIC PROTEIN EPITOPE PEPTIDE …) [ENV584, human immunodeficiency virus-1 (HIV-1) envelope peptide, residues 584-592, control, reference compound]",production of IFN-γ spots,[1],not observed
"YYVDEKAPEF (… PROTEIN EPITOPE PEPTIDE …) [Ep250, Ep-CAM peptide, amino acid positions 250-259]",production of IFN-γ spots,[1],specifically produced IFN-γ spots
